pIC50: −log10 of the molar value.
Legend:
ASIC1a [1] = target: T1, ASIC1a (Homo sapiens, UniProt P78348); test: Calcium-imaging (calcium mobilization, FLIPR) assay in ASIC1a expressing HEK293 cells; format: cell-based; set-up: host or cells: HEK293; details: n=3-7, compounds not radiolabelled
T1 sequence (P78348 1-528): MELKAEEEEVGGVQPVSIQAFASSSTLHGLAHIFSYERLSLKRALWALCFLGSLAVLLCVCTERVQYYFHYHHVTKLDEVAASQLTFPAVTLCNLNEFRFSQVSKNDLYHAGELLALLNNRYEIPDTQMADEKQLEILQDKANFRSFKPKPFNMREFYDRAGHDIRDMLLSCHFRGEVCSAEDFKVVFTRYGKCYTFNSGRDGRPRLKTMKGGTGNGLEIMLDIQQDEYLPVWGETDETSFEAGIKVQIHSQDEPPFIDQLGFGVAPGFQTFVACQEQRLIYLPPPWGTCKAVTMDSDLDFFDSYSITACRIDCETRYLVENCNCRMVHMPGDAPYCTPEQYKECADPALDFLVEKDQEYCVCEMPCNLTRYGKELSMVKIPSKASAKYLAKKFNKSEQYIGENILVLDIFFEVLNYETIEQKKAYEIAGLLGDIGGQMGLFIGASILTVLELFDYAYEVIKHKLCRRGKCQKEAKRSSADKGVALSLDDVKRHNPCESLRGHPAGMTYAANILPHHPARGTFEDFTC
Method: ASIC1a expressing HEK293 cells are grown in culture medium (DMEM with 10% FBS), in polystyrene culture flasks ([…]) at 37° C. in a humidified atmosphere of 5% CO2. Confluency of cells should be 80-90% on day of plating. Cells are rinsed with 10 ml of PBS and re-suspended by addition of culture medium and trituration with a 25 ml pipette.
The cells are seeded at a density of approximately 1×10^6 cells/ml (100 μl/well) in black-walled, clear bottom, 96-well plates pre-treated with 10 mg/l poly-D-lysin (75 μl/well for ≧30 min). Plated cells were allowed to proliferate for 24 h before loading with dye.
Fluo-4/AM (1 mg, Molecular Probes) is dissolved in 912 μl DMSO. The Fluo-4/AM stock solution (1 mM) is diluted with culture medium to a final concentration of 2 μM (loading solution).
The culture medium is aspirated from the wells, and 50 μl of the Fluo-4/AM loading solution is added to each well. The cells are incubated at 37° C. for 30 min.
After the loading period, the loading solution is aspirated and the cells are washed twice with 100 μl modified Assay Buffer (145 mM NaCl, 5 mM KCl, 5 mM CaCl2, 1 mM MgCl2, 10 mM HEPES, pH 7.4) to remove extracellular dye. Following the second wash, 100 μl modified Assay Buffer is added to each well and the fluorescence is measured in FLIPR™ or FlexStation™ (Molecular Devices, USA), or any other suitable equipment known to the skilled in the art.
Temperature: Room temperature (20-22° C.)
First addition: 50 μl test solution at a rate of 30 μl/sec and a starting height of […]
Second addition: 50 μl MES solution (20 mM, 5 mM final concentration) at a rate of 35 μl/sec and a starting height of 150 μl.
Reading intervals: pre-incubation—10 sec×7 and 3 sec×3 antagonist phase—3 sec×17 and 10 sec×12
Addition plates (compound test plate and MES plate) are placed on the right and left positions in the FLIPR tray, respectively. Cell plates are placed in the middle position and the ASIC1a program is effectuated. FLIPR will then take the appropriate measurements in accordance with the interval settings above. Fluorescence obtained after stimulation is corrected for the mean basal fluorescence (in modified Assay Buffer).
The MES-induced peak calcium response, in the presence of test substance, is expressed relatively to the MES response alone. Test substances that block the MES-induced calcium response are re-tested in triplicates. Confirmed hits are picked for further characterization by performing full dose-response curves to determine potency of each hit compound as represented by the IC50 values (i.e., the concentration of the test substance which inhibits 50% of the MES-induced calcium response).
It is noted that the compounds below are not radiolabelled.

[2] = Plasma composition analysis, parent compound and metabolites by MS; format: in vivo; details: rat plasma; for Plasma Component: P-OH: Compound G: detected but not confirmed (footnote a)
Method: Rats receive compounds (5 mg/kg) dissolved in HPβCD 15%, dextrose 2.5%, pH 5 by intravenous (i.v). route or (25-30 mg/kg) dissolved in HPβCD 15%, dextrose 2.5%, […] (s.c.) route or (50-150 mg/kg) dissolved in HPβCD 15%, dextrose 2.5%, pH 5 by oral (p.o.) route. After the treatment, approximately 100 μl of blood sample is collected and the accurate bleeding time is recorded for each sample. Each blood sample is collected into Microvette blood collection tube containing anticoagulant lithium heparin. Following collection, the samples are centrifuged at […] for 15 minutes (to avoid haemolysis) and the plasma obtained from each is recovered and stored frozen (at −80° C.) pending analysis. Frozen samples are shipped on dry ice to quantify drug concentration within plasma after extraction procedure as previously described in Example 13.

ASIC1a [3] = target: T1, ASIC1a; test: Whole cell patch clamp in heterologous expression system (CHO cells); format: cell-based; set-up: expressed in transfected cells; host or cells: CHO cells
Method: Another example of an in vitro assessment method consists of using mammalian heterologous expression systems, which are known to the skilled in the art, and include a variety of mammalian cell lines such as COS, HEK, e.g., HEK293 and/or CHO, cells. Cell lines are transfected with gated ion channel(s) and used to perform electrophysiology as follows:
All experiments are performed at room temperature (20-25° C.) in voltage clamp using conventional whole cell patch clamp methods (Neher, E., et al. (1978) Pfluegers Arch 375:219-228).
The amplifier used is the EPC-9 (HEKA-electronics, Lambrect, Germany) run by a Macintosh G3 computer via an ITC-16 interface. Experimental conditions are set with the Pulse-software accompanying the amplifier. Data is low pass filtered and sampled directly to hard-disk at a rate of 3 times the cut-off frequency.
Pipettes are pulled from borosilicate glass using a horizontal electrode puller (Zeitz-lnstrumente, Augsburg, Germany). The pipette resistances are 2-3 MOhms in the salt solutions used in these experiments. The pipette electrode is a chloridized silver wire, and the reference is a silver chloride pellet electrode (In Vivo Metric, Healdsburg, USA) fixed to the experimental chamber. The electrodes are zeroed with the open pipette in the bath just prior to sealing.
Coverslips with the cells are transferred to a 15 μl experimental chamber mounted on the stage of an inverted microscope (IMT-2, Olympus) supplied with Nomarski optics. Cells are continuously superfused with extracellular saline at a rate of 2.5 ml/min. After giga-seal formation, the whole cell configuration is attained by suction. The cells are held at a holding voltage of −60 mV and at the start of each experiment the current is continuously measured for 45 s to ensure a stable baseline. […] Current amplitudes are measured at the peak of the responses, and effect of the compounds is calculated as the amplitude at compound equilibrium divided by the amplitude of the current evoked by the pulse just before the compound was included. […]

[4] = system: CFA-induced change in weight bearing in Sprague-Dawley rats; test: CFA model of chronic inflammatory pain, hindpaw weight bearing; format: in vivo, rat; details: 24 h after CFA; 60 min after drug; Compound A 5, 10, 20 mg/kg i.p.; Compound H 10, 30, 60 mg/kg; morphine 3, 6, 10 mg/kg; n=7-8
Method: Rats (body weight 260-300 g) were given a s.c. injection of CFA (50% in saline, 100 μl, Sigma) into the plantar surface of the hindpaw under brief halothane anaesthesia. After 24 h, they were then tested for hindpaw weight bearing responses, as assessed using an Incapacitance Tester (Linton Instrumentation, UK), (Zhu et al., 2005). The instrument incorporates a dual channel scale that separately measures the weight of the animal distributed to each hindpaw. While normal rats distribute their body weight equally between the two hindpaws (50-50), the discrepancy of weight distribution between an injured and non-injured paw is a natural reflection of the discomfort level in the injured paw (nocifensive behavior). The rats were placed in the plastic chamber designed so that each hindpaw rested on a separate transducer pad. […] For each rat, three readings from each paw were taken and then averaged. Side-to-side weight bearing difference was calculated as the average of the absolute value of the difference between two hindpaws from three trials (right paw reading-left paw reading).
Hindpaw weight bearing responses were measured in male Sprague-Dawley rats for 2-3 days prior to being given a hindpaw injection of CFA. Twenty-four hours later baseline responses were measured and rats were then administered Compound A (5, 10 and 20 mg/kg, i.p.), Compound H (10, 30 and 60 mg/kg) and morphine (3, 6 and 10 mg/kg). Weight bearing responses were then measured at 30, 60 and 120 min after drug or vehicle injection (data shown at 60 min.). […] All groups n=7-8.

With CCN1CCc2c(-c3ccccc3OC)cc3c(c2C1)NC(=O)/C3=N/O [Compound J, 5-(2-methoxy-phenyl)-6,7,8,9-tetrahydro-3-(hydroxyimino)-8-ethyl-1H-pyrrolo[3,2-h]isoquinoline-2(3H)-one] the pIC50 (ASIC1a [1]) was 6.15, the “Plasma Component: N-desEt” value ([2]; IV 5 mg/kg) was “Small” and the “Plasma Component: O-desMe” value ([2]; IV 5 mg/kg (table of Compounds G and J)) was “Small”. The “Plasma Component: P-OH” value ([2]; IV 5 mg/kg) was “Small”, the “Plasma Component: N-desEt” value ([2]; PO 50 mg/kg) was “Small” and the “Plasma Component: O-desMe” value ([2]; PO 50 mg/kg (table of Compounds G and J)) was “Small”. For the same molecule, the “Plasma Component: P-OH” value ([2]; PO 50 mg/kg) was “Small”.
In the case of N=C(N)NC(=O)c1nc(Cl)c(N)nc1N [amiloride, reference compound], the “human ASIC1a pH-evoked response” value (ASIC1a [3]) was “reduce the human ASIC1a pH-evoked response in CHO cells in a dose-dependent manner”.
With CN1CC[C@]23c4c5ccc(O)c4O[C@H]2[C@@H](O)C=C[C@H]3[C@H]1C5 [morphine, reference compound] the “CFA-induced change in weight bearing compared with vehicle” value [4] was “marked dose-dependent attenuation”.
